From patent publication US6825230B2, “Spiro and dispiro 1,2,4-trixolane antimalarials” (Medicines for Malaria Venture MMV, priority 2002, dated 2004)
Read-outs that look alike come from different tables or passages of the source.

How the values were obtained:
[1] = system: chloroquine-resistant K1 strain of P. falciparum; test: In vitro antimalarial semiautomated microdilution assay ([3H]-hypoxanthine incorporation), K1 strain; format: cell-based, Plasmodium falciparum; conditions: Plasmodium falciparum, K1, 72 h, read-out: IC50 (ng/ml) K1, chloroquine-resistant K1 strain, 72 h incubation
In short: (§1)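 IC50 comes from Logit regression of [3H]-hypoxanthine incorporation data. Intraerythrocytic P. falciparum taken from asynchronous stock cultures is exposed to OZ compounds in a semiautomated microdilution format.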

[2] = system: Schistosoma mansoni adult worms (49-day-old); test: Effect on adult schistosomes (49-day-old) in infected mice; format: in vivo; conditions: for % reduction of adult worms growth at day 49 after per os application of 400 mg/kg, TWR (%) / Adult worms day 49, per os 400 mg/kg, DEAD WORM (%): single 400 mg/kg per os
Experimental: Mice were infected with 100 Schistosoma mansoni cercariae on day 49 post-treatment. Each group was treated per os with OZ compounds at single doses of 200, 400, and 600 mg/kg. Untreated mice served as the control. All groups were killed 4 weeks after treatment and the liver and intestine were removed and separated. The liver and intestine were compressed and alive male and female worms could be seen and counted.

[3] = system: Schistosoma mansoni 21-day-old schistosomules; test: Effect on 21-day-old schistosomules in infected mice; format: in vivo; conditions: single 200 mg/kg per os, 21-day-old schistosomules
Experimental: Mice were infected with 100 Schistosoma mansoni cercariae on day 21 post-treatment. Each group was treated per os with trioxolanes at a single dose of 200 mg/kg. […] All groups were killed 4 weeks after treatment and the liver and intestine were removed and separated. The liver and intestine were compressed and alive male and female worms could be seen and counted. The effect of the compounds was evaluated by mean total and female worm burden.

P. berghei ANKA strain [4] = test: Onset of action and recrudescence experiment, single 100 mg/kg po; format: in vivo, Plasmodium berghei; conditions: single 100 mg/kg po (SSV) on day +3 post-infection; recrudescence = >5% parasitemia; followed up to 60 days; groups of five
Experimental: The onset of drug action was determined after a single fixed dose of 100 mg/kg (SSV vehicle) po to groups of five animals on day +3 post-infection (day 0).
(§2) Moro NMRI male mice (Fu Albino specific pathogen free) weighing 18±2 g were infected intravenously (i.v.) with 2×10^7 P. berghei ANKA strain-infected erythrocytes from donor mice on day 0 of the experiment. From donor mice with circa 30% parasitemia, heparinized blood was taken and diluted in physiological saline to 10^8 parasitized erythrocytes per ml. An aliquot (0.2 ml) of this suspension was injected i.v. into experimental and control groups of mice. […] Throughout the experiments, mice were kept in groups of three or five animals in Makrolon type II cages in an air-conditioned animal room at 22 to 23° C.

[5] = system: ANKA strain of Plasmodium berghei; test: Single dose ED50/ED90/ED99 determination in infected mice; format: in vivo; conditions: for ED50: Plasmodium berghei
In short: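 Moro SPF or NMRI mice (three per group) infected with P. berghei ANKA were dosed once on day 1 post-infection in SSV (0.5% CMC, 0.5% benzyl alcohol, 0.4% Tween 80, 0.9% NaCl). Parasitemia reduction was scored on day 3; ED values (mg/kg) came from nonlinear fitting.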

[6] = system: ANKA strain of P. berghei; test: Single dose STI in vivo screen in infected mice; design: species or system Plasmodium berghei; conditions: for Survival (days) 10 mg/kg SSV po: single 10 mg/kg po in SSV
Schistosoma japonicum = test: Effect in mice infected with Schistosoma japonicum; format: in vivo; conditions: for MFWB (mean female worm burden) x ± SD: control 11.6 ± 2.4; for MTWB (mean total worm burden) x ± SD: control 26.6 ± 4.2
[7] = system: chloroquine-sensitive NF54 strain of P. falciparum; test: In vitro antimalarial semiautomated microdilution assay ([3H]-hypoxanthine incorporation), NF54 strain; format: cell-based, Plasmodium falciparum; conditions: Plasmodium falciparum, NF54, 72 h, read-out: IC50 (ng/ml) NF54, chloroquine-sensitive NF54 strain, 72 h incubation
In short: as §1

S. haematobium = test: In vivo activity against S. haematobium; design: species or system Schistosoma haematobium; conditions: 1 x 200 mg/kg p.o.
[8] = Pharmacokinetics in dogs (IV and oral dosing); conditions: in vivo, dog; for bioavailability: some values marked (V), not defined
From the text: (§3) Artesunate is listed as a reference compound.

P. berghei ANKA strain [9] = test: Prophylactic activity, single 100 mg/kg po at various times before infection; format: in vivo, Plasmodium berghei
Experimental: as §2
Prophylactic activities of the compounds were compared after administering po single dose of 100 mg/kg to different groups of five animals at various times before infection. All groups including an untreated control group, were then infected at the same time. Parasitemia was determined for each animal on day 3 post-infection, and percent of reduction of the level of parasitemia compared to levels for animals given no drug is determined.

P. berghei ANKA strain [10] = test: Divided 3x10 mg/kg vs single 1x30 mg/kg po dose in infected mice; format: in vivo, Plasmodium berghei
P. berghei ANKA strain [11] = test: Divided 3x3 mg/kg and 3x1 mg/kg po doses in infected mice; format: in vivo, Plasmodium berghei
In short: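 Male NMRI mice were infected i.v. with 2×10^7 P. berghei-parasitized erythrocytes on day 0, then dosed orally in SSV vehicle on days 1, 2 and 3 post-infection.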

[12] = Pharmacokinetics in rats (IV and oral dosing); conditions: in vivo, rat; for bioavailability: po
From the text: as §3

[13] = 49-day-old adults, total worm reduction rate
[14] = percentage of dead worm in the liver
[15] = single dose po in SSV on day 1 post-infection, parasitemia day 3, nonlinear fitting
[16] = 1 x 200 mg/kg p.o. (table footnote)
[17] = 1 x 400 mg/kg p.o. (table footnote)
[18] = age of worm 7 days, 200 mg/kg x 1
[19] = age of worm 35 days, 200 mg/kg x 1
[20] = age of worm 35 days, 400 mg/kg x 1

Q: Which IC50 [1] does the source give for `Cc1ccc(S(=O)(=O)O)cc1.NC[C@H]1CC[C@]2(CC1)OOC1(O2)C2CC3CC(C2)CC1C3` (some centres unmarked) [OZ207] here?
A: 0.33 ng/mL

Q: What about the “% reduction of adult worms growth at day 49 after per os application of 200 mg/kg, TWR (%)” value ([2]; single 200 mg/kg per os, 49-day-old adults, total worm reduction rate) of the same compound?
A: 32%

Q: What about the “Adult worms day 49, per os 200 mg/kg, DEAD WORM (%)” value ([2]; single 200 mg/kg per os, percentage of dead worm in the liver) of the same compound?
A: 17%

Q: What about the “% reduction of adult worms growth at day 49 after per os application of 400 mg/kg, TWR (%)” value [2, 13] of the same compound?
A: 35%

Q: What about the “Adult worms day 49, per os 400 mg/kg, DEAD WORM (%)” value [2, 14] of the same compound?
A: 21%

Q: And the “% reduction of adult worms growth at day 49 after per os application of 600 mg/kg, TWR (%)” value ([2]; single 600 mg/kg per os, 49-day-old adults, total worm reduction rate)?
A: 11/ %

Q: What about the “Adult worms day 49, per os 600 mg/kg, DEAD WORM (%)” value ([2]; single 600 mg/kg per os, percentage of dead worm in the liver) of the same compound?
A: 24++ %

Q: What about the “% reduction of schistosomule growth at day 21 after per os application of 200 mg/kg, FWR (%)” value ([3]; female worm reduction rate) of the same compound?
A: 100%

Q: And the “% reduction of schistosomule growth at day 21 after per os application of 200 mg/kg, TWR (%)” value ([3]; total worm reduction rate)?
A: 93%

Q: What about the “Time of Recrudescence (days)” value (P. berghei ANKA strain [4]) of the same compound?
A: no recrudescence observed

Q: And the ED50 ([5]; po, single dose po in SSV on day 1 post-infection, parasitemia day 3, nonlinear fitting)?
A: 0.37 mg/kg

Q: What about the “ED90” value [5, 15] of the same compound?
A: 1.2 mg/kg

Q: What about the “ED99” value [5, 15] of the same compound?
A: 3.0 mg/kg

Q: What about the “Survival (days) 10 mg/kg po” value ([6]; single 10 mg/kg po in 3% ethanol and 7% Tween 80, untreated 6-7 days) of the same compound?
A: 9.3 days

Q: And the “Activity (%) 10 mg/kg po” value ([6]; single 10 mg/kg po in 3% ethanol and 7% Tween 80 on day 1 post-infection, percent reduction in parasitemia on day 3)?
A: 99.96%

Q: What about the “Survival (days) 10 mg/kg SSV po” value ([6]; untreated 6-7 days) of the same compound?
A: 12.0 days

Q: What about the “Activity (%) 10 mg/kg SSV po” value ([6]; single 10 mg/kg po in standard suspending vehicle (SSV) on day 1 post-infection, percent reduction in parasitemia on day 3) of the same compound?
A: 99.98%

Q: And the “Survival (days) 10 mg/kg sc” value ([6]; single 10 mg/kg sc in 3% ethanol and 7% Tween 80, untreated 6-7 days)?
A: 11.3 days

Q: And the “Activity (%) 10 mg/kg sc” value ([6]; single 10 mg/kg sc in 3% ethanol and 7% Tween 80 on day 1 post-infection, percent reduction in parasitemia on day 3)?
A: 99.98%

Q: What about the “S. Japonicum FWR” value (Schistosoma japonicum; [16]) of the same compound?
A: 95%

Q: What about the “S. Japonicum TWR” value (Schistosoma japonicum; [16]) of the same compound?
A: 66%

Q: And the “S. Japonicum FWR” value (Schistosoma japonicum; [17])?
A: 94%

Q: And the “S. Japonicum TWR” value (Schistosoma japonicum; [17])?
A: 84%

Q: What about the “Mice without female worm” value (Schistosoma japonicum; [18]) of the same compound?
A: 0/8

Q: And the “MFWB (mean female worm burden) x ± SD” value (Schistosoma japonicum; [18])?
A: 2.1 ± 1.0

Q: What about the “MTWB (mean total worm burden) x ± SD” value (Schistosoma japonicum; [18]) of the same compound?
A: 5.4 ± 2.4

Q: And the “Mice without female worm” value (Schistosoma japonicum; [19])?
A: 4/7

Q: And the “MFWB (mean female worm burden) x ± SD” value (Schistosoma japonicum; [19])?
A: 0.6 ± 0.7

Q: And the “MTWB (mean total worm burden) x ± SD” value (Schistosoma japonicum; [19])?
A: 9.1 ± 3.9

Q: What about the “Mice without female worm” value (Schistosoma japonicum; [20]) of the same compound?
A: 4/6

Q: What about the “MFWB (mean female worm burden) x ± SD” value (Schistosoma japonicum; [20]) of the same compound?
A: 0.7 ± 1.2

Q: What about the “MTWB (mean total worm burden) x ± SD” value (Schistosoma japonicum; [20]) of the same compound?
A: 4.3 ± 1.2

Q: What about the IC50 [7] of the same compound?
A: 0.57 ng/mL

Q: And the “S. haematobium DEAD WORM” value (S. haematobium)?
A: 68%

Q: What about the “S. haematobium TWR” value (S. haematobium) of the same compound?
A: 73%

Q: What does the source list for `CC(C)(N)CNC(=O)C[C@H]1CC[C@]2(CC1)OO[C@]1(O2)C2CC3CC(C2)CC1C3` [OZ277]?
A: % reduction of adult worms growth at day 49 after per os application of 400 mg/kg, TWR (%) [2, 13]: 0/0%; Adult worms day 49, per os 400 mg/kg, DEAD WORM (%) [2, 14]: 0/0%; half-life ([8]; IV 10 mg/kg): 1.58 h; half-life ([8]; oral 10 mg/kg): 2.47 h; bioavailability ([8]; oral 10 mg/kg, read-out: Dog Oral Bioavailability 10 mg/kg): 87.9%; bioavailability ([8]; oral 25 mg/kg, read-out: Dog Oral Bioavailability 25 mg/kg): 96.1%; Time of Recrudescence (P. berghei ANKA strain [4]): 13.0 days; ED50 ([5]; single dose po in SSV on day 1 post-infection, parasitemia day 3, nonlinear fitting, read-out: ED50): 0.78 mg/kg; ED90 ([5]; po): 2.0 mg/kg; ED99 [5, 15]: 4.4 mg/kg; Prophylactic Activity (%) 72 h (P. berghei ANKA strain [9]; po, 100 mg/kg): 9%; Prophylactic Activity (%) 24 h (P. berghei ANKA strain [9]; single 100 mg/kg po 24 h before infection, parasitemia reduction on day 3 post-infection): 25%; Prophylactic Activity (%) 48 h (P. berghei ANKA strain [9]; single 100 mg/kg po 48 h before infection, parasitemia reduction on day 3 post-infection): 7%; Prophylactic Activity (%) 0 h (P. berghei ANKA strain [9]; single 100 mg/kg po at 0 h, parasitemia reduction on day 3 post-infection): 100%; Survival (days) 3 mg/kg SSV po ([6]; single 3 mg/kg po in SSV): 9.6 days; Survival (days) 10 mg/kg SSV po ([6]; untreated 6-7 days): 9.3 days; Survival (days) 3 × 10 mg/kg p.o. SSV (P. berghei ANKA strain [10]; 10 mg/kg po on days 1, 2, 3 post-infection): 27.6 days; Activity (%) 3 × 10 mg/kg p.o. SSV (P. berghei ANKA strain [10]; 10 mg/kg po on days 1, 2, 3 post-infection, parasitemia reduction on day 4): 100%; Survival (days) 1 × 30 mg/kg p.o. SSV (P. berghei ANKA strain [10]; single 30 mg/kg po on day 1 post-infection): 10.4 days; Activity (%) 1 × 30 mg/kg p.o. SSV (P. berghei ANKA strain [10]; single 30 mg/kg po on day 1 post-infection, parasitemia reduction on day 4): 99.92%; Cures 1 × 30 mg/kg p.o. SSV (P. berghei ANKA strain [10]; single 30 mg/kg po, cure = survival to day 30 post-infection): 0/5; Survival (P. berghei ANKA strain [11]; 3 × 1 mg/kg p.o. SSV on days 1, 2, 3 post-infection): 9.4 days; Survival (P. berghei ANKA strain [11]; 3 × 3 mg/kg p.o. SSV on days 1, 2, 3 post-infection): 14 days; Activity (%) (P. berghei ANKA strain [11]; 3 × 3 mg/kg p.o. SSV on days 1, 2, 3 post-infection, percent reduction of parasitemia vs control on day 4): 100%; Activity (%) (P. berghei ANKA strain [11]; po, 1 mg/kg, 96 h): 83%; Cures (P. berghei ANKA strain [11]; po, 3 mg/kg, 720 h): 0\5; half-life ([12]; IV 10 mg/kg): 1.29 h; half-life ([12]; oral 25 mg/kg): 1.51 h; bioavailability ([12]; 10 mg/kg): 36.9%; bioavailability ([12]; 25 mg/kg): 44.1%
